Assay results reported in ChEMBL document CHEMBL1201862, “PubChem BioAssay data set” (2004).
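Values below derive from 48-hour exposures of cells grown in 96-well plates, with endpoints linearly interpolated between the two concentrations bracketing the appropriate inhibition level. GI50 is the concentration that inhibits growth by half.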 Activity calls are given as the source filed them. No stated cut-off is given here; in the data, active = GI50 up to about 1.1 µM and inactive = higher.

Experiments:
Experiment in all cases: NCI-60 cell line screen, 48 h
UO-31 = test system: UO-31
MOLT-4 = test system: MOLT-4
HOP-92 = test system: HOP-92
786-0 = test system: 786-0
OVCAR-5 = test system: OVCAR-5
OVCAR-3 = test system: OVCAR-3
BT-549 = test system: BT-549
OVCAR-4 = test system: OVCAR-4
NCI/ADR-RES = test system: NCI/ADR-RES
SK-MEL-28 = test system: SK-MEL-28
CAKI-1 = test system: CAKI-1
SK-OV-3 = test system: SK-OV-3
A498 = test system: A498
NCI-H226 = test system: NCI-H226
HL-60 = test system: HL-60
KM12 = test system: KM12
SNB-75 = test system: SNB-75
SF-268 = test system: SF-268
M14 = test system: M14
PC-3 = test system: PC-3
A549 = test system: A549
HCC 2998 = test system: HCC 2998
Malme-3M = test system: Malme-3M
NCI-H23 = test system: NCI-H23
MDA-MB-435 = test system: MDA-MB-435
MDA-N = test system: MDA-N
RXF 393 = test system: RXF 393
Hs-578T = test system: Hs-578T
SF-295 = test system: SF-295
NCI-H460 = test system: NCI-H460
SR = test system: SR
SW-620 = test system: SW-620
UACC-62 = test system: UACC-62
HT-29 = test system: HT-29
OVCAR-8 = test system: OVCAR-8
SN12C = test system: SN12C
HOP-62 = test system: HOP-62
SF-539 = test system: SF-539
ACHN = test system: ACHN
HCT-15 = test system: HCT-15
UACC-257 = test system: UACC-257
EKVX = test system: EKVX
SK-MEL-2 = test system: SK-MEL-2
TK-10 = test system: TK-10
K562 = test system: K562
HCT-116 = test system: HCT-116
RPMI-8226 = test system: RPMI-8226
CCRF-CEM = test system: CCRF-CEM
LOX IMVI = test system: LOX IMVI
U-251 = test system: U-251
IGROV-1 = test system: IGROV-1
SNB-19 = test system: SNB-19
MCF7 = test system: MCF7
COLO 205 = test system: COLO 205
NCI-H522 = test system: NCI-H522
DU-145 = test system: DU-145
T47D = test system: T47D
SK-MEL-5 = test system: SK-MEL-5
MDA-MB-231 = test system: MDA-MB-231

Structure (SMILES): CC1(C)O[C@H]2OC(CO[Si](C)(C)C(C)(C)C)C(N=[N+]=[N-])[C@H]2O1 (stereo partly specified)
- GI50 (UO-31): 17.2 µM (inactive)
- GI50 (MOLT-4): 17 µM (inactive)
- GI50 (HOP-92): 23.9 µM (inactive)
- GI50 (786-0): 18.2 µM (inactive)
- GI50 (OVCAR-5): 20.5 µM (inactive)
- GI50 (OVCAR-3): 22.7 µM (inactive)
- GI50 (BT-549): 21.6 µM (inactive)
- GI50 (OVCAR-4): 26.3 µM (inactive)
- GI50 (NCI/ADR-RES): 18.1 µM (inactive)
- GI50 (SK-MEL-28): 24.7 µM (inactive)
- GI50 (CAKI-1): 23.8 µM (inactive)
- GI50 (SK-OV-3): 14 µM (inactive)
- GI50 (A498): 25 µM (inactive)
- GI50 (NCI-H226): 20 µM (inactive)
- GI50 (HL-60): 7.31 µM (inactive)
- GI50 (KM12): 18.7 µM (inactive)
- GI50 (SNB-75): 28.4 µM (inactive)
- GI50 (SF-268): 20.7 µM (inactive)
- GI50 (M14): 19.2 µM (inactive)
- GI50 (PC-3): 20.3 µM (inactive)
- GI50 (A549): 18.2 µM (inactive)
- GI50 (HCC 2998): 17.8 µM (inactive)
- GI50 (Malme-3M): 17.1 µM (inactive)
- GI50 (NCI-H23): 19.2 µM (inactive)
- GI50 (MDA-MB-435): 25.8 µM (inactive)
- GI50 (MDA-N): 23.7 µM (inactive)
- GI50 (RXF 393): 16.6 µM (inactive)
- GI50 (Hs-578T): 23.6 µM (inactive)
- GI50 (SF-295): 11.8 µM (inactive)
- GI50 (NCI-H460): 26.2 µM (inactive)
- GI50 (SR): 12.4 µM (inactive)
- GI50 (SW-620): 21.5 µM (inactive)
- GI50 (UACC-62): 19.1 µM (inactive)
- GI50 (HT-29): 12.5 µM (inactive)
- GI50 (OVCAR-8): 20.1 µM (inactive)
- GI50 (SN12C): 20 µM (inactive)
- GI50 (HOP-62): 19.2 µM (inactive)
- GI50 (SF-539): 20 µM (inactive)
- GI50 (ACHN): 18.7 µM (inactive)
- GI50 (HCT-15): 21.1 µM
- GI50 (UACC-257): 18 µM (inactive)
- GI50 (EKVX): 22.8 µM (inactive)
- GI50 (SK-MEL-2): 17.2 µM (inactive)
- GI50 (TK-10): 19.1 µM (inactive)
- GI50 (K562): 13.3 µM (inactive)
- GI50 (HCT-116): 15.6 µM (inactive)
- GI50 (RPMI-8226): 13 µM (inactive)
- GI50 (CCRF-CEM): 16.6 µM (inactive)
- GI50 (LOX IMVI): 21 µM (inactive)
- GI50 (U-251): 20.6 µM (inactive)
- GI50 (IGROV-1): 3.04 µM (inactive)
- GI50 (SNB-19): 17.7 µM (inactive)
- GI50 (MCF7): 20.7 µM (inactive)

Structure (SMILES): O=C1OC(=O)C2=C1C(c1cccs1)C=C(c1cccnc1)N2c1ccncc1 (stereo unspecified)
- GI50 (UO-31): 15.6 µM (inactive)
- GI50 (MOLT-4): 23.1 µM (inactive)
- GI50 (HOP-92): 12.8 µM (inactive)
- GI50 (786-0): 17.3 µM (inactive)
- GI50 (OVCAR-5): 12.2 µM (inactive)
- GI50 (OVCAR-3): 13.4 µM (inactive)
- GI50 (BT-549): 15.5 µM (inactive)
- GI50 (COLO 205): 17.5 µM (inactive)
- GI50 (OVCAR-4): 20 µM (inactive)
- GI50 (NCI/ADR-RES): 29.4 µM (inactive)
- GI50 (NCI-H522): 13.8 µM (inactive)
- GI50 (SK-MEL-28): 24.3 µM (inactive)
- GI50 (CAKI-1): 15.1 µM (inactive)
- GI50 (SK-OV-3): 24.9 µM (inactive)
- GI50 (DU-145): 16.6 µM (inactive)
- GI50 (A498): 18.7 µM (inactive)
- GI50 (NCI-H226): 21.6 µM (inactive)
- GI50 (HL-60): 11 µM (inactive)
- GI50 (KM12): 13.4 µM (inactive)
- GI50 (SNB-75): 15.2 µM (inactive)
- GI50 (SF-268): 16.6 µM (inactive)
- GI50 (M14): 13.2 µM (inactive)
- GI50 (PC-3): 12.2 µM (inactive)
- GI50 (A549): 17.6 µM (inactive)
- GI50 (HCC 2998): 14.1 µM (inactive)
- GI50 (NCI-H23): 17.6 µM (inactive)
- GI50 (MDA-MB-435): 20 µM (inactive)
- GI50 (MDA-N): 17.8 µM (inactive)
- GI50 (RXF 393): 16.2 µM (inactive)
- GI50 (Hs-578T): 18.7 µM (inactive)
- GI50 (SF-295): 20.9 µM (inactive)
- GI50 (NCI-H460): 17.3 µM (inactive)
- GI50 (SR): 1.12 µM (active)
- GI50 (SW-620): 20.7 µM (inactive)
- GI50 (UACC-62): 19.9 µM (inactive)
- GI50 (HT-29): 16.8 µM (inactive)
- GI50 (OVCAR-8): 21.6 µM (inactive)
- GI50 (SN12C): 17.1 µM (inactive)
- GI50 (HOP-62): 15.8 µM (inactive)
- GI50 (T47D): 18.2 µM (inactive)
- GI50 (ACHN): 16.5 µM (inactive)
- GI50 (HCT-15): 14.2 µM
- GI50 (UACC-257): 12.3 µM (inactive)
- GI50 (EKVX): 14 µM (inactive)
- GI50 (SK-MEL-2): 15.4 µM (inactive)
- GI50 (TK-10): 17 µM (inactive)
- GI50 (K562): 9.12 µM (inactive)
- GI50 (HCT-116): 14.3 µM (inactive)
- GI50 (RPMI-8226): 13 µM (inactive)
- GI50 (CCRF-CEM): 20.1 µM (inactive)
- GI50 (LOX IMVI): 13.2 µM (inactive)
- GI50 (SK-MEL-5): 17.4 µM (inactive)
- GI50 (MDA-MB-231): 19.9 µM (inactive)
- GI50 (U-251): 16.9 µM (inactive)
- GI50 (IGROV-1): 13.8 µM (inactive)
- GI50 (SNB-19): 18 µM (inactive)

Structure (SMILES): C[B@@-]1(c2ccc(C(F)(F)F)cc2)N[C@@H](Cc2ccccc2)C(=O)O1
- GI50 (UO-31): 88.1 µM (inactive)
- GI50 (MOLT-4): > 100 µM (inactive)
- GI50 (HOP-92): 11.9 µM (inactive)
- GI50 (786-0): > 100 µM (inactive)
- GI50 (OVCAR-5): > 100 µM (inactive)
- GI50 (OVCAR-3): > 100 µM (inactive)
- GI50 (BT-549): > 100 µM (inactive)
- GI50 (COLO 205): > 100 µM (inactive)
- GI50 (OVCAR-4): > 100 µM (inactive)
- GI50 (NCI/ADR-RES): > 100 µM (inactive)
- GI50 (SK-MEL-28): > 100 µM (inactive)
- GI50 (SK-OV-3): > 100 µM (inactive)
- GI50 (DU-145): > 100 µM (inactive)
- GI50 (A498): > 100 µM (inactive)
- GI50 (NCI-H226): > 100 µM (inactive)
- GI50 (HL-60): 31.8 µM (inactive)
- GI50 (SNB-75): 31.6 µM (inactive)
- GI50 (SF-268): > 100 µM (inactive)
- GI50 (M14): > 100 µM (inactive)
- GI50 (PC-3): > 100 µM (inactive)
- GI50 (A549): > 100 µM (inactive)
- GI50 (HCC 2998): > 100 µM (inactive)
- GI50 (Malme-3M): > 100 µM (inactive)
- GI50 (NCI-H23): > 100 µM (inactive)
- GI50 (MDA-MB-435): > 100 µM (inactive)
- GI50 (MDA-N): > 100 µM (inactive)
- GI50 (SF-295): > 100 µM (inactive)
- GI50 (NCI-H460): > 100 µM (inactive)
- GI50 (SR): > 100 µM (inactive)
- GI50 (SW-620): > 100 µM (inactive)
- GI50 (UACC-62): > 100 µM (inactive)
- GI50 (HT-29): > 100 µM (inactive)
- GI50 (OVCAR-8): > 100 µM (inactive)
- GI50 (SN12C): > 100 µM (inactive)
- GI50 (HOP-62): > 100 µM (inactive)
- GI50 (T47D): > 100 µM (inactive)
- GI50 (ACHN): > 100 µM (inactive)
- GI50 (HCT-15): > 100 µM
- GI50 (UACC-257): > 100 µM (inactive)
- GI50 (EKVX): > 100 µM (inactive)
- GI50 (TK-10): > 100 µM (inactive)
- GI50 (K562): > 100 µM (inactive)
- GI50 (HCT-116): > 100 µM (inactive)
- GI50 (RPMI-8226): > 100 µM (inactive)
- GI50 (CCRF-CEM): > 100 µM (inactive)
- GI50 (LOX IMVI): > 100 µM (inactive)
- GI50 (SK-MEL-5): > 100 µM (inactive)
- GI50 (MDA-MB-231): > 100 µM (inactive)
- GI50 (U-251): > 100 µM (inactive)
- GI50 (IGROV-1): > 100 µM (inactive)
- GI50 (SNB-19): > 100 µM (inactive)
- GI50 (MCF7): > 100 µM (inactive)
